Measurements taken from US20240207282A1, “METHOD OF INCREASING CHAPERONE MEDIATED AUTOPHAGY BY STABILIZING THE INTERACTION OF RETINOIC ACID RECEPTOR-ALPHA AND AN INHIBITOR” (ALBERT EINSTEIN COLLEGE OF MEDICINE, priority 2021, published 2024).

How the values were obtained:
Type in all cases: cell-based, mouse
NIH3T3 = test: Intracellular proteolysis of long half-life proteins (3H-leucine); conditions: 10 μM; duration of increase after addition
Experimental: Proteolysis was calculated from aliquots of the medium taken at different times and precipitated in trichloroacetic acid, as the amount of acid-precipitable radioactivity transformed to acid-soluble radioactivity at each time.

CMA network = test: Comparative transcriptomic analysis / qPCR of CMA network; conditions: compared to AR7
Experimental: mRNA-qPCR: RNA was extracted from individual retinas. Total RNA from retinas was extracted using TRIzol Reagent (Invitrogen), and reverse transcription performed using the High-Capacity cDNA Reverse Transcription Kit (Applied Biosystems) according to the manufacturer's instructions. Quantitative real-time PCR was performed in a Light Cycler 480 Instrument (Roche) with Taqman Universal PCR Master Mix using Taqman assays (Life Tech-nologies). The following probes were used: Mm01184405_m1 (rhodopsin), F-5′-CTTAGCTTCTGGGATGC CCC-3′, R-5′-[…]-3′ (lamp2a) F-5′-AA GGACTCCTA TAGTGGG TGACGA-3′, R-5′-[…]-3′ (mouse β-actin).
Microarray: Total RNA of the treated cells was extracted using TRIzol (Invitrogen) and purified with RNeasy chromatography (Qiagen). Cy3-labeled RNA (0.6 μg) from each condition were hybridized to Agilent Mouse 8×60K. Data were processed using the oligo package and normalized using Robust Multiarray Average (RMA) method. Gene set was filtered to remove genes without Entrez or GO annotation (21912 genes out of 55682) and genes with an […]. The full microarray Gomez-Sintes et al. raw data will be deposited in GEO upon acceptance of the manuscript. Pathway analysis was performed using the STRING database ([…]).
CMA index was calculated using data set from Ly (J. Proteome Research (2016) 15: 1350-1359), Gao (2020), and Lane (2020). Briefly, each element of the CMA network was attributed a weight. As LAMP-2A is the rate limiting component of CMA, it was given a weight of 2. Every other element received a weight of 1. Then, every element was attributed direction score that is +1 or −1 based on the known effect of a given element on CMA activity. The score was then calculated as the weighted/directed average of expression counts of every element of the CMA network.

neuron-related cells = test: CMA activity, KFERQ-PS-Dendra reporter in neuron-related cells; conditions: for CMA activation: neuronal-related mouse cells
Experimental: Cells: NIH3T3 mouse fibroblasts and the N2a neuroblastoma cell line were obtained from the American Type Culture Collection and were validated by genomic PCR. Primary human fibroblasts (GM01651) were from Coriell Repository. All the cells lines were tested for mycoplasma contamination using DNA staining protocol with Hoechst 33258 dye. Knock-down of NCoR1 was done using lentiviral mediated shRNA (SHCLNG-NM_011308) from the Sigma Mission library following standard procedures. Efficiency of knock-down was tested by immunoblot. Cell viability was measured using the CellTiter-Blue kit (Promega) 24 h after the addition of the different stressors according to manufacturer's instructions.
CMA activity: Cells were transduced with lentivirus carrying the KFERQ-PS-Dendra reporter as before. Cells were photoactivated by exposure to a 3.5 mA (current constant) light emitting diode (LED: Norlux, 405 nm) for 3 min and then plated in glass-bottom 96 well plates. At the desired times, cells were fixed with 4% PFA and imaged using high-content microscopy (Operetta system, Perkin Elmer). Images were quantified using the manufacturer's software in a minimum of 1,200 cells in 9 independent fields per well. […] To avoid con-funding effects for drug-induced changes in cell volume or adherence to the plate that could bring a fraction of the cells per field outside of focus, we set a threshold to count only cells that have at least 1/10 of the average number of […] detected in the untreated wells for each cell type (3-4 puncta/cell in the case of NIH3T3 and N2a cells and 5 puncta/cell in primary human fibroblasts). […] Slices were mounted in DAPI-Fluoromount-G to highlight the cell nucleus and allow quantification of puncta per cell. Images were acquired in x-y-z planes with an Axiovert 200 fluorescence microscope (Carl Zeiss Ltd) with a ×63 objective and 1.4 numerical aperture, mounted with an ApoTome.2 slider or with a Confocal microscope (TCS SP5; Leica) using an HCX Plan Apo CS×63.0 1.40 NA oil objective and the Leica Application Suite X (LAS X).

Compound | intracellular rates of degradation of long-lived proteins (NIH3T3) | predicted CMA activation score (CMA network) | CMA activation (neuron-related cells) | CMA activation after removal of compound (neuron-related cells; compound removed from the media)
Clc1ccc2c(c1)OCC(c1ccc(-c3ccccc3)cc1)=N2 [CA39] | remained upregulated 24 h after adding | higher | efficiently activate CMA | 
CC(=O)Nc1ccc(C2=Nc3ccc(Cl)cc3OC2)cc1 [CA77] | remained upregulated 24 h after adding | higher | efficiently activate CMA | persisted and even further increased after the compound was removed from the media
